From patent US7419669B2, “Peptide epitopes common to antigens of the same multigene family” (Institut Gustave Roussy, priority 2002, dated 2008)
Where no end group is shown, it is not given here.

What was measured:
HLA-A*0201 = biological target: T1, HLA-A*0201 (Homo sapiens, UniProt P04439, D140Y/D185E/D98H/E176V/E277Q/G131W/G231S/I119V/I121R/I166T/I218V/L300P/L318F/N151K/N90K/P208A/P217A/Q86G/Q94H/R138H/R169H/T345S); test: Relative affinity (RA) of peptides for HLA-A*0201 on T2 cells, flow cytometry with BB7.2; format: binding; conditions: for affinity for HLA-A*0201 (in words): low affinity = RA>5 and DC50<2 hours; for RA (relative affinity for HLA-A*0201): ratio of peptide concentration to reference peptide (HIVpol 589) concentration inducing 20% of fluorescence obtained with 100 μM reference, T2 cells, lower RA = stronger binding
T1 construct: prevent the expression at their surface of newly synthesized HLA-A*0201 molecules; endogenous in cells; host or cells: human T2 cells (TAP-deficient)
Procedure: The affinity of the selected peptides for HLA-A*0201 was defined by two parameters: the relative affinity (RA); which reflects the ability of the peptides to bind to HLA-A*0201, and the rate of dissociation of the HLA-A*0201/peptide complexes (DC50), which reflects their stability. The peptides with high affinity (RA<5 and DC50>2 hours) are potentially immunogenic, unlike the peptides with low affinity (RA>5 and DC50<2 hours).
Human T2 cells (FIRAT et al., Eur. J. Immunol., 29, 3112, 1999) (3×10^5 cells/ml), which are deficient in TAP transporters, are incubated at 37° C. for 16 hours with various concentrations (100 μM, 10 μM, 1 μM, 0.1 μM) of each test peptide in serum-free RPMI 1640 medium supplemented with 100 ng/ml of human β2-microglobulin. Next, they are washed twice and labeled with the monoclonal antibody BB7.2 (PARHAM et al., Hum. Immunol., 3, 4, 277-299, 1981) which is specific for the HLA-A*0201 molecule, and then with a goat anti-mouse Ig antibody coupled to fluorescein isothiocyanate (FITC).
The cells are then analyzed by flow cytometry. For each concentration of peptide, the specific HLA-A*0201 fluorescence is calculated as a percentage of the fluorescence obtained with 100 μM of a reference peptide (HIVpol 589; […] (SEQ ID No: 1)). The relative affinity (RA) is defined as the ratio of the concentration of each peptide that induces 20% of the fluorescence obtained with 100 μM of the reference peptide, to the concentration of the reference peptide that induces 20% of the fluorescence obtained with 100 μM of said reference peptide. The lower the relative affinity, the stronger the binding of the peptide to HLA-A*0201. The mean RA for each peptide is determined from at least three independent experiments. In all the experiments, 20% of the maximum fluorescence was obtained for 1 to 3 μM of the reference peptide.
The relative affinity (RA) of the selected variant peptides for HLA-A*0201 was measured as described in example 1.

RMAS-HHD target cells = test: Cytotoxicity assay with CTL lines 1R5 and 2R5 (HHD mice immunized with p911Y1V9) on peptide-loaded RMAS-HHD target cells; format: cell-based, murine; conditions: for CTL response (specific lysis) to RMAS-HHD cells loaded with the peptide: CTL lines 1R5 and 2R5 induced with p911Y1V9, 10 μM peptide
Procedure: Two CTL lines, called 1R5 and 2R5, were established from the spleen cells of HHD mice immunized with the variant peptide p911Y1V9, according to the same protocol as that described in example 1.
Cytotoxicity assays were carried out as described in example 2. For this, RMAS-HHD target cells loaded with 10 μM of the test peptides (variant or native peptides) were incubated in the presence of cells of the two CTL lines 1R5 and 2R5.
The percentage specific lysis values observed in the presence of the 1R5 (□) and 2R5 (▪) lines and for the various peptides tested are given in FIG. 5.

RMAS-HHD cells = test: Intracellular IFNγ production of CTL line 1R5 with peptide-loaded RMAS-HHD cells; format: cell-based, murine; conditions: for response of CD8+ cells of CTL line 1R5 to RMAS-HHD cells loaded with the peptide: intracellular IFNγ production
Procedure: The response of the cells of the CTL line 1R5 with respect to the RMAS-HHD cells loaded with the various peptides was also evaluated by assaying the intracellular IFNγ production.
For this, the cells of the CTL line 1R5 are incubated in the presence of RMAS-HHD cells loaded with the variant peptide p911Y1V9, the native peptides HER1 911, HER2,3 911 or HER4 911, or an irrelevant peptide, and in the presence of 20 μg/ml of Brefeldine-A (Sigma). After 6 hours, the cells are washed, labeled with an anti-CD8 antibody conjugated to r-phycoerythrin, and incubated in PBS for 25 min at 4° C. They are then again washed, before being fixed with a 4% paraformaldehyde solution. The cells are then permeabilized with saponin (Sigma) at 0.2% in PBS, and labeled with an anti-IFNγ monoclonal antibody conjugated to allophycocyanin (Pharmingen).
(§1) The cells are then analyzed by flow cytometry (FACSCalibur™ (Becton Dickinson) and CellQuest™ software).

HHD transgenic mice = test: Induction of specific CTLs in HHD transgenic mice by immunization with variant MAGE-A peptides; 51Cr cytotoxicity on peptide-loaded RMAS-HHD targets; format: in vivo; conditions: for recognition of RMAS-HHD targets loaded with the native peptide by CTLs induced with the corresponding variant: native peptide loaded on targets
Procedure: The immunogenicity of the variant peptides p174Y1V10, p262L2 and p248V9 was evaluated by generation of CTLs on HHD transgenic mice (PASCOLO et al., J. Exp. Med., 185, 2043, 1997). These mice are β2m−/−, D^b−/− and express an HLA-A*0201 single chain made up of the α1 and α2 domains of HLA-A*0201 and the α3 and intracellular domains of D^b, linked via its N-terminal to the C-terminal of human β2-microglobulin, via a peptide of 15 amino acids.
The HHD mice are given a subcutaneous injection at the base of the tail with 100 μg of each variant peptide to be tested, emulsified in Freund's incomplete adjuvant, in the presence of 140 μg of a T-helper epitope derived from the HBV “core” antigen (128-140, sequence […]).
After 11 days, spleen cells taken from the mice (5×10^7 cells in 10 ml) are stimulated in vitro with the test peptide (10 μM). On the 6th day of culture, the populations which respond are tested in order to determine a specific cytotoxicity. The cells which respond are restimulated in vitro at one-week intervals with 2×10^7 irradiated (3000 rads) HHD spleen cells and 1 to 0.1 μM of peptide in the presence of 50 IU/ml of recombinant IL2 (Proleukin, Chiron Corp).
Cytotoxicity assays are carried out 6 days after the final stimulation.
RMAS-HHD cells are used as targets to study the cytotoxicity. The cells are obtained by transfection of murine RMAS cells with the HHD construct as described by PASCOLO et al. (J. Exp. Med., 185, 2043, 1997).
These target cells are labeled with 100 μCi of ^51Cr for 90 minutes, and then washed three times and plated out in round-bottomed 96-well plates (3×10^3 cells/well in 100 μl of RPMI 1640+3% of fetal calf serum). They are loaded with various concentrations of test peptide (variant, native peptide, or irrelevant control peptide), at 37° C. for 90 minutes.
Next, 100 μl of the effector cells (effector cell/target cell ratio=40/1) are added to the wells and the plates are incubated at 37° C. for 4 hours. After incubation, 100 μl of supernatant are collected and the radioactivity is measured in a γ-counter.
The percentage of specific lysis is calculated by means of the formula: [(experimental ^51Cr release−spontaneous ^51Cr release)/(maximum ^51Cr release−spontaneous ^51Cr release)]×100. In all the experiments, the spontaneous release is less than 20% of the maximum release induced with 3N HCl.

[1] = tested on: CD8+ cells from normal donors; test: Induction of specific human CTLs in vitro from PBMCs of normal donors with p248V9, intracellular IFNγ production; format: cell-based; conditions: intracellular IFNγ production
Procedure: The ability of p248V9 to induce CTLs in vitro using peripheral blood mononuclear cells (PBMCs) from normal donors was tested as follows.
The PBMCs are obtained, from blood samples taken by leukocytapheresis on normal donors, after centrifugation at 2000 rpm for 20 min on a Ficoll/Hypaque (Amersham) gradient. After 3 washes in 0.9% NaCl, they are resuspended in complete medium (RPMI 1640 supplemented with 10% of heat-inactivated human AB serum, 40 μg/ml of gentamicin (Panpharma) and […] of L-glutamine (Gibco)), and incubated at 37° C. for 2 hours. After incubation, the non-adherent cells are removed. The adherent cells are differentiated into dendritic cells by culturing in a Teflon bag in a proportion of 3×10^6 cells/ml in complete medium supplemented with 500 IU/ml of GM-CSF (R & D Systems) and 500 IU/ml of IL-4 (R & D Systems). On the seventh day, maturing agents (100 ng/ml of polyI:C and 2 μg/ml of anti-CD40 antibody) are added to the culture. After 24 hours, the mature dendritic cells are loaded with the peptide p248V9 by incubation for 2 hours with 10 μM of peptide in the presence of 5 μg/ml of β2-microglobulin, and then irradiated at 3500 rads; they are then washed in order to remove the free peptide. CD8+ cells are isolated from the non-adherent cells by means of microbeads coupled to an anti-CD8 antibody (Miltenyi Biotec).
2×10^5 CD8+ cells are stimulated with 2×10^4 dendritic cells loaded with the peptide, in complete medium supplemented with 1000 IU/ml of IL-6 and 5 IU/ml of IL-12 in a final volume of 100 μl/well in a 96-well plate. From the seventh day, the cultures are stimulated in vitro each week with the dendritic cells loaded with the peptide, in the presence of 20 IU/ml of IL-2 and 10 ng/ml of IL-7. After the third restimulation, the CD8+ cells are collected and stimulated with EBV-transformed HLA-A*0201 allogenic B cells, in a 1/2 ratio, in the presence of 10 μM of peptide, for 16 hours.
The IFNγ-producing CD8+ cells are purified using a commercial kit (IFNγ secretion assay-cell enrichment and detection kit, Miltenyi Biotech). The cells thus purified are cultured for one week in complete medium supplemented with 20 IU/ml of IL-2 and 10 ng/ml of IL-7.
The response of these CD8+ cells to T2 cells loaded with one of the peptides p248V9, p248G9 or p248D9, or with a irrelevant peptide (HIVgag76), or to HLA-A*0201+MAGE-A+ tumor cells (M44 and M113) or HLA-A*0201+MAGE-A^− tumor cells (Caco-2), is evaluated by assaying the intracellular IFNγ production.
The CD8+ cells are incubated with the cells of the tumor line tested, in the presence of 20 μg/ml of Brefeldine-A (Sigma). […]
as §1

CLGLSYDGLL [p174]
affinity for HLA-A*0201 (in words) (HLA-A*0201): low affinity

TIWELMTFGG (listed as Homo sapiens) [HER4 911]
CTL response (specific lysis) to RMAS-HHD cells loaded with the peptide (RMAS-HHD target cells): induce a CTL response
response of CD8+ cells of CTL line 1R5 to RMAS-HHD cells loaded with the peptide (RMAS-HHD cells): response of the CD8+ cells of the CTL line 1R5

TVWELMTFGA (listed as Homo sapiens) [HER2,3 911]
CTL response (specific lysis) to RMAS-HHD cells loaded with the peptide (RMAS-HHD target cells): induce a CTL response
response of CD8+ cells of CTL line 1R5 to RMAS-HHD cells loaded with the peptide (RMAS-HHD cells): response of the CD8+ cells of the CTL line 1R5

TVWELMTFGS (listed as Homo sapiens) [HER1 911]
CTL response (specific lysis) to RMAS-HHD cells loaded with the peptide (RMAS-HHD target cells): induce a CTL response
response of CD8+ cells of CTL line 1R5 to RMAS-HHD cells loaded with the peptide (RMAS-HHD cells): response of the CD8+ cells of the CTL line 1R5

YICTIDVYMV (not fully specified) [p945Y1V9]
RA (relative affinity for HLA-A*0201) (HLA-A*0201): >100

YLAARNVLV (not fully specified) [p845Y]
RA (relative affinity for HLA-A*0201) (HLA-A*0201): >100

YLEYRQVPD (listed as Homo sapiens) [p248D9]
recognition of RMAS-HHD targets loaded with the native peptide by CTLs induced with the corresponding variant (HHD transgenic mice): also against the two native peptides
response of p248V9-induced human CD8+ cells to T2 cells loaded with the peptide [1]: a response of the CD8+ cells
affinity for HLA-A*0201 (in words) (HLA-A*0201): low affinity

YLEYRQVPG (listed as Homo sapiens) [p248G9]
recognition of RMAS-HHD targets loaded with the native peptide by CTLs induced with the corresponding variant (HHD transgenic mice): also against the two native peptides
response of p248V9-induced human CD8+ cells to T2 cells loaded with the peptide [1]: a response of the CD8+ cells
affinity for HLA-A*0201 (in words) (HLA-A*0201): low affinity

YLFLWGPRA (not fully specified) [p262L2]
CTL response generated by immunization with the variant peptide (HHD transgenic mice; HHD mice, 100 μg s.c. in Freund's incomplete adjuvant, RMAS-HHD targets, effector/target 40/1): induces CTLs capable of recognizing this peptide, but not the native p262 peptide

YLLEKGERL (not fully specified) [p933Y]
RA (relative affinity for HLA-A*0201) (HLA-A*0201): >100

YVKVLGSGV (not fully specified) [p722Y1V9]
RA (relative affinity for HLA-A*0201) (HLA-A*0201): >100

YVWELMTFGV (not fully specified) [p911Y1V9]
CTLs generated by the variant peptide, killing of loaded RMAS-HHD target cells (RMAS-HHD target cells; CTL lines 1R5 and 2R5, targets loaded with 10 μM peptide): generates CTLs which kill the RMAS-HHD target cells loaded with the variant peptide p911Y1V9, but also with the native peptides HER1 911, HER2,3 911 or HER4 911
CTL response (specific lysis) to RMAS-HHD cells loaded with the peptide (RMAS-HHD target cells): induce a CTL response
CTLs induced by the variant peptide, recognition by IFNγ production (RMAS-HHD cells; CTL line 1R5): induces CTLs capable of recognizing this variant peptide, but also the native peptides from which it is derived
response of CD8+ cells of CTL line 1R5 to RMAS-HHD cells loaded with the peptide (RMAS-HHD cells): response of the CD8+ cells of the CTL line 1R5

YVWSYGVTV (not fully specified) [p904Y]
RA (relative affinity for HLA-A*0201) (HLA-A*0201): >100
